Experimental data from patent US11414385B2, “Compounds and methods for treating, detecting, and identifying compounds to treat apicomplexan parasitic diseases” (The University of Chicago, priority 2015, dated 2022).
“Also recorded” adds a separate entry of the source.

Assays:
[1] = system: human foreskin fibroblasts (HFF); assay: Cytotoxicity assay with WST-1 in HFF; format: cell-based; conditions: 10 μM and 50 μM, WST-1
Procedure: (§1) Toxicity assays were conducted using WST-1 cell proliferation reagent (Roche). HFF were grown on a flat, clear-bottomed, black 96-well plate. Confluent HFF were treated with inhibitory compounds at concentrations equal to those being tested in challenge assays. Compounds were diluted in IMDM-C, and 20 μl were added to each designated well, with triplicates for each condition. A gradient of 2 fold-decreasing concentrations of DMSO in clear IMDM-C was used as a control. The plate was incubated for 72 hours at 37° C. 10 μl of WST-1 reagent (Roche) were added to each well and the cells were incubated for 30 to 60 minutes. Absorbance was read using a fluorometer at 420 nm. A higher degree of color change (and absorbance) indicated mitochondrial activity and cell viability.
as §1, with “(Roche) as described in Fomovska, et. al. (18,19).” for “(Roche).”, “of 10 μM and 50 μM.” for “equal to those being tested in challenge assays.”, “DMSO from 10% to 0%” for “DMSO”, “fluorimeter” for “fluorometer”

[2] = system: Toxoplasma gondii (Pru strain expressing luciferase) tachyzoites; assay: Toxoplasma in vivo, IVIS luminescence in mice; conditions: 5 mg/kg/day IP
Procedure: IVIS. Mice were infected intraperitoneally with 20×10^3 Toxoplasma gondii (Pru strain expressing luciferase) tachyzoites. Treatment commenced 2 hours later with JAG21 (5 mg/kg) which was dissolved in DMSO and administered intraperitoneally in a total volume of 0.05 ml. Mice were imaged every second day starting on day 4 post infection using a IVIS Spectrum (Caliper Life Sciences) for a 1 minute exposures, with medium binning, 20 minutes post injection with 150 mg/kg of D-luciferin potassium salt solution.

CYP = CYP profile; format: in vitro ADME
Dd2 parasites = assay: Isobologram drug combination assay (fixed ratio, FIC); format: cell-based, Plasmodium falciparum; conditions: Dd2, fixed ratios
Procedure: Isobologram experiments were performed in similar fashion utilizing the modified fixed ratio methodology. Briefly, MJM170 and either atovaquone or cycloguanil or BRD6323 were mixed at multiple fixed volumetric ratios (10:0, 8:2, 6:4, 4:6, 2:8, and 0:10) and then serially diluted in 12-point 2-fold dilutions and dispensed in triplicate to 384-well assay plates and replicated on three different days. EC50 values were calculated as above, and FICs were calculated for each drug combination as described^S76. Synergy was defined as an FIC <1.0, additivity as FIC=1.0, and antagonism as FIC >1.0.

[3] = Cytotoxicity assay with WST-1 in HFF; format: cell-based; conditions: human, human foreskin fibroblasts (HFF); read-out: HFF Toxicity CC50
Procedure: as §1
as §1, with “(Roche) as described in Fomovska, et. al. (18,19).” for “(Roche).”, “of 10 μM and 50 μM.” for “equal to those being tested in challenge assays.”, “DMSO from 10% to 0%” for “DMSO”, “fluorimeter” for “fluorometer”

MDCK-MDR1 cells = assay: in vitro; format: in vitro ADME; conditions: dog, MDCK-MDR1
[4] = system: S. cerevisiae wild type parental AD1-9 strain; assay: Yeast growth inhibition on glycerol medium, wild type; format: cell-based, Saccharomyces cerevisiae; conditions: 1 mM, 100, 5 and 1 μM
Procedure: (§2) Three S. cerevisiae strains were used: M221Q and M221F cytochrome b mutants and wild type. They share the same nuclear genetic background deriving from AD1-9 (kindly given by M. Ghislain, UCL, Belgium). AD1-9 harbors multiple deletions in the ABC transporter genes that render the strain more sensitive to drugs than standard yeast strains^S65.
Protocol: Yeast strains were grown over 48 hours at 33° C. in liquid YPG medium [1% yeast extract, 2% (wt/vol) peptone, and 3% (vol/vol) glycerol). Cultures were diluted to an OD600 of 0.05 and grown for 2 hrs. Cultures were then combined with YPG containing 6% melted agar for a total volume of 15-20 mL and poured onto OmniTray single-well rectangular plates that measured 86 mm by 128 mm (ThermoScientific). Filter paper disks (7 mm diameter, […]) were placed onto the cooled agar plates. […] A single disk with DMSO on each plate was used as a control. Plates were incubated at 33° C. Images were obtained after 4 days using GelDoc XR Imaging System (BioRad) and Quantity One software. Drug effect was assessed by the presence and size of a zone of inhibition around the disks.

[5] = system: S. cerevisiae M221Q and M221F cytochrome b mutants; assay: Yeast growth inhibition, cytochrome b Qi mutants; format: cell-based, Saccharomyces cerevisiae
Excerpt: as §2
Cytochrome b mutant M221F was generated by mitochondrial transformation as described. M221 Q was selected as suppressor from a respiratory deficient mutant. Analysis of revertants from respiratory deficient mutants within the center N of cytochrome b in Saccharomyces cerevisiae.
Protocol: Yeast strains were grown over 48 hours at 33° C. in liquid YPG medium [1% yeast extract, 2% (wt/vol) peptone, and 3% (vol/vol) glycerol). Cultures were diluted to an OD600 of 0.05 and grown for 2 hrs. Cultures were then combined with YPG containing 6% melted agar for a total volume of 15-20 mL and poured onto OmniTray single-well rectangular plates that measured 86 mm by 128 mm (ThermoScientific). Filter paper disks (7 mm diameter, […]) were placed onto the cooled agar plates. […] Images were obtained after 4 days using GelDoc XR Imaging System (BioRad) and Quantity One software. Drug effect was assessed by the presence and size of a zone of inhibition around the disks.

[6] = system: T. gondii RH and Prugniaud strain tachyzoites; assay: Tachyzoite infection in mice; format: in vivo, Toxoplasma gondii; conditions: for efficacy against Prugniaud (Type 2) tachyzoites in mice: 25 mg/kg daily
Procedure: Ability of compounds to abrogate tachyzoites multiplication was assessed using an in vivo imaging system (IVIS). To facilitate this we have T. gondii strains from each of the 3 major lineages expressing the luciferase gene. In these studies mice are injected intraperitoneally with tachyzoites and parasite proliferation followed up to 30 days post infection. Removal of brains at 30 days allows parasite quantitation by bioluminescence ex vivo using the IVIS. As an alternative method to improve screening efficiency and scalability it is possible for initial screening to use zebrafish with histopathology and visualization as shown in FIG. 6. Quantitation also was performed using QT PCR as described for mice or in translucent Casper zebrafish with parasites with fluors or luciferase to screen rapidly. Tachyzoites and bradyzoites in cysts were used for IP infection and compounds given intraperitoneally.
To test type II parasites, we used T. gondii Me49 and Prugneaud parasites^S39.

| Structure (SMILES) | toxicity to human foreskin fibroblasts [1] | effect on T. gondii tachyzoites in mice [2] | CYP profile (CYP) | combination effect with BRD6323 (Dd2 parasites) | combination effect with atovaquone (Dd2 parasites) | combination effect with cycloguanil (Dd2 parasites) | CC50 at 72 h [3] [µM] | MDCK-MDR1 Efflux Ratio (MDCK-MDR1 cells) | growth inhibition of wild type yeast [4] | growth inhibition of M221Q / M221F yeast [5] | efficacy against Prugniaud (Type 2) tachyzoites in mice [6] | efficacy against RH tachyzoites in mice ([6]; 25 mg/kg daily intraperitoneally, RH-YFP) | efficacy against Prugniaud (Type 2) tachyzoites in mice ([6]; listed as MJM 170) | toxicity in mice ([6]; 25 mg/kg for 5 days) |
| --- | --- | --- | --- | --- | --- | --- | --- | --- | --- | --- | --- | --- | --- | --- |
| Cc1[nH]c2c(c(=O)c1-c1ccc(Oc3ccc(OC(F)(F)F)cc3)cc1)CCCC2 [JAG21, 2-methyl-3-(4-(4-(trifluoromethoxy)phenoxy)phenyl)-5,6,7,8-tetrahydroquinolin-4(1H)-one] | no toxicity | protects against Toxoplasma gondii tachyzoites; also recorded: cleared; also recorded: eliminates T. gondii tachyzoites | clean |  |  |  |  |  |  |  |  |  |  |  |
| Cc1[nH]c2c(c(=O)c1-c1ccc(Oc3ccccc3)cc1)CCCC2 [MJM170] |  |  |  | Antagonism | modest synergy; also recorded: modestly synergistic; also recorded: Slight synergy | additive effect | 20 | 1.23 | effective | resistant | highly efficacious | highly efficacious; also recorded: eliminates active infection | reduces Type 2 parasites | without toxicity |
